In patent publication US20240398828A1, “HETERO-ATOM CONTAINING COMPOUNDS AND USES THEREOF” (Kumquat Biosciences Inc., priority 2021, published 2024) one finds IC50 data, which are given here for eleven compounds.

pIC50: −log10 of the molar value. Bounds are passed on as bounds.

For assay [1], the target named is T1, PTPN2 (i.e., TC-PTP) (Homo sapiens, UniProt P17706).
T1 sequence (P17706 1-415): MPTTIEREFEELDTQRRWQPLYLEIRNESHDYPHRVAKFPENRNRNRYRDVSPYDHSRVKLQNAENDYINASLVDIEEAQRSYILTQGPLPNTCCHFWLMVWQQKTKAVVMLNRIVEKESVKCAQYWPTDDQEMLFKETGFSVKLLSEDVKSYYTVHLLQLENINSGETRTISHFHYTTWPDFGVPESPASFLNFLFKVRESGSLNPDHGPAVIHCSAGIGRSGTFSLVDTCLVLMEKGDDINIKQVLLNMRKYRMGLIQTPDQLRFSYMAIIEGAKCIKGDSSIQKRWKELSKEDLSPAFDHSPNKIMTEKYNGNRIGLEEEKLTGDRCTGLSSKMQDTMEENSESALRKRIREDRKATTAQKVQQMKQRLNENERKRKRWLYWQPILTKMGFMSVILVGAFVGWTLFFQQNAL
Put plainly: Phosphatase activity assay (DiFMUP substrate), PTPN2. It is filed as biochemical. The following applies: compounds binned ≤1 uM or >1 uM. The essentials: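 Continuous fluorogenic readout of DiFMUP dephosphorylation at room temperature, substrate set at Km for each phosphatase (about 45 μM in the PTPN2 assay). The buffer contains 1 mM DTT and 0.001% Tween-20, pH 7.5.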

The target in assay [2] is T2, PTPN1 (i.e., PTP1B) (Homo sapiens, UniProt P18031).
T2 sequence (P18031 1-435): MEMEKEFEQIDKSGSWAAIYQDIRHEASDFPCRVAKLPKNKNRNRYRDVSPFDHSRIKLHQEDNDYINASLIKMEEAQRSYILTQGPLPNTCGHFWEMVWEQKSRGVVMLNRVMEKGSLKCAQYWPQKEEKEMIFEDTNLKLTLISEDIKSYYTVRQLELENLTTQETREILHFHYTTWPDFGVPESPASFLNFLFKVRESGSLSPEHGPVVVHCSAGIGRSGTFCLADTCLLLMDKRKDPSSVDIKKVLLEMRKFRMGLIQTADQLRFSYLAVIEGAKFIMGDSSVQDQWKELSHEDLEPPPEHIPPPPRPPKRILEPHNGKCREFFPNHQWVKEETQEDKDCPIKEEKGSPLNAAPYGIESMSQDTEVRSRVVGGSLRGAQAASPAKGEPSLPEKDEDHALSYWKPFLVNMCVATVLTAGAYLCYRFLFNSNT
The assay is described as follows: Phosphatase activity assay (DiFMUP substrate), PTP1B. The assay is classed as biochemical. The following applies: compounds binned ≤1 uM or >1 uM. In a few lines: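 Enzyme (e.g. PTPN2 0.025 ng/ul) mixed about 2 min with compound at 10 serial concentrations in 50 mM HEPES pH 7.5, 150 mM NaCl, 0.5 mM EDTA, 1 mM DTT, 0.001% Tween-20 at room temperature. DiFMUP added at each enzyme's Km (about 45 μM for PTPN2). DiFMU fluorescence (ex 360/em 450 nm) followed 15-30 min; IC50 from 4-parameter fit of rates.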

With `O=C1CN(c2c(O)ccc(-c3cnn(CC4(Cl)CCC4)c3)c2F)S(=O)(=O)N1` [Compound 387, 5-(3-(1-((1-chlorocyclobutyl)methyl)-1H-pyrazol-4-yl)-2-fluoro-6-hydroxyphenyl)-1,2,5-thiadiazolidin-3-one 1,1-dioxide], the pIC50 in assay [1] and in assay [2] was at least 6.00 throughout.
For `CC1(N)CCN(c2cc(-c3ccc(O)c(N4CC(=O)NS4(=O)=O)c3F)[nH]n2)C1` (stereo not shown) [Compound 279, 5-(3-(3-(3-amino-3-methylpyrrolidin-1-yl)-1H-pyrazol-5-yl)-2-fluoro-6-hydroxyphenyl)-1,2,5-thiadiazolidin-3-one 1,1-dioxide], the negative-log IC50 (pIC50) in assay [1] and in assay [2] was at least 6.00 in each case.
`O=C1CN(c2c(O)ccc(-c3cn(CCC(F)F)nc3F)c2F)S(=O)(=O)N1` [Compound 530, 5-(3-(1-(3,3-difluoropropyl)-3-fluoro-1H-pyrazol-4-yl)-2-fluoro-6-hydroxyphenyl)-1,2,5-thiadiazolidin-3-one 1,1-dioxide]: the negative logarithm of the IC50 (pIC50) in assay [1] and in assay [2] was at least 6.00 in each case.
As to `Cn1ccc(-c2cc(-c3ccc(O)c(N4CC(=O)NS4(=O)=O)c3F)[nH]n2)c1` [Compound 333, 5-(2-fluoro-6-hydroxy-3-(3-(1-methyl-1H-pyrrol-3-yl)-1H-pyrazol-5-yl)phenyl)-1,2,5-thiadiazolidin-3-one 1,1-dioxide], the pIC50 in assay [1] and in assay [2] was at least 6.00 throughout.
`O=C1CN(c2c(O)ccc(-c3cnn(C4CC5(CC5)C4)c3)c2F)S(=O)(=O)N1` [Compound 414, 5-(2-fluoro-6-hydroxy-3-(1-(spiro[2.3]hexan-5-yl)-1H-pyrazol-4-yl)phenyl)-1,2,5-thiadiazolidin-3-one 1,1-dioxide]: the pIC50 in assay [1] and in assay [2] was at least 6.00 throughout.
As to `O=C1CN(c2c(O)ccc(-c3cc(C(F)F)n[nH]3)c2F)S(=O)(=O)N1` [Compound 337, 5-(3-(3-(difluoromethyl)-1H-pyrazol-5-yl)-2-fluoro-6-hydroxyphenyl)-1,2,5-thiadiazolidin-3-one 1,1-dioxide], the pIC50 in assay [1] and in assay [2] was at least 6.00 in each case.
On to `Cn1nc(-c2ccc(O)c(N3CC(=O)NS3(=O)=O)c2F)cc1O` [Compound 479, 5-(2-fluoro-6-hydroxy-3-(5-hydroxy-1-methyl-1H-pyrazol-3-yl)phenyl)-1,2,5-thiadiazolidin-3-one 1,1-dioxide], for which the pIC50 in assay [1] and in assay [2] was at least 6.00 in each case.
Turning to `O=C1CN(c2c(O)ccc(-c3cnn(S(=O)(=O)C4CC4)c3)c2F)S(=O)(=O)N1` [Compound 342, 5-(3-(1-(cyclopropylsulfonyl)-1H-pyrazol-4-yl)-2-fluoro-6-hydroxyphenyl)-1,2,5-thiadiazolidin-3-one 1,1-dioxide], the pIC50 in assay [1] and in assay [2] was at least 6.00 in each case.
Consider `O=C1CN(c2c(O)ccc(-c3cc(C4CC4)n(CC4CCNC4)n3)c2F)S(=O)(=O)N1` (stereo not shown) [Compound 329, 5-(3-(5-cyclopropyl-1-(pyrrolidin-3-ylmethyl)-1H-pyrazol-3-yl)-2-fluoro-6-hydroxyphenyl)-1,2,5-thiadiazolidin-3-one 1,1-dioxide], for which the pIC50 in assay [1] and in assay [2] was at least 6.00 in each case.
For the compound `NC(=O)C1CC1c1cc(-c2ccc(O)c(N3CC(=O)NS3(=O)=O)c2F)[nH]n1` (stereo not shown) [Compound 533, 2-(5-(3-(1,1-dioxido-4-oxo-1,2,5-thiadiazolidin-2-yl)-2-fluoro-4-hydroxyphenyl)-1H-pyrazol-3-yl)cyclopropane-1-carboxamide], the negative logarithm of the IC50 (pIC50) in assay [1] and in assay [2] was at least 6.00 each time.
Take `NC(=O)C1(c2cc(-c3ccc(O)c(N4CC(=O)NS4(=O)=O)c3F)[nH]n2)CC1` [Compound 517, 1-(5-(3-(1,1-dioxido-4-oxo-1,2,5-thiadiazolidin-2-yl)-2-fluoro-4-hydroxyphenyl)-1H-pyrazol-3-yl)cyclopropane-1-carboxamide]: the negative-log IC50 (pIC50) in assay [1] and in assay [2] was at least 6.00 each time.

By pIC50 is commonly meant −log10 of the IC50, conventionally taken in molar units.
